Data as given in patent US10526283B2, “Prodrugs of dithiol mucolytic agents” (PARION SCIENCES, INC., priority 2015, dated 2020).
Where a name gives a salt, the structure may show the parent alone.

Experiments:
[1] = Pro-drug DTNB assay without enzyme (reducing activity); type: biochemical; conditions: for reducing activity in DTNB assay without enzyme: no esterase added
Source text: (§1) This assay was designed to determine whether prodrug caps added on to our dithiol mucolytic compounds can be cleaved from the molecule. If so, the outcome would be an “active” compound that is able to reduce the S—S bond in DTNB. When cleaved the resulting compound, NTB (2-nitro-5-thiobenzoate), is a colored product that can be measured spectrophotometrically at an absorbance of 412 nm (Abs412). Using the molar extinction coefficient of NTB and measured maximum Abs412, the molar amount of DTNB that reacted with our mucolytic agents can be calculated. Dithiol mucolytic compounds react at a 2:1 stoichiometric ratio with DTNB (i.e. 2 molecules of NTB are produced for every one molecule of a dithiol compound that is oxidized). Dithiol prodrugs were mixed at a final concentration of 22.5 μM with excess DTNB (100 μM final) in 1 mL 50 mM Tris-HCl buffer (pH 7.5) and maximum Abs412 was measured. In the absence of a purified hydrolytic enzyme (e.g. porcine liver esterase; Sigma), the amount of DTNB cleavage observed is an indicator for stability of the cap on the prodrug compound (i.e. if the prodrug remains intact in solution the Abs412=0). Next, 5 uL of esterase (bought as an ammonium sulfate suspension that is subsequently centrifuged to isolate the esterase and then dissolved in reaction buffer prior to assaying) is combined with excess DTNB (100 μM final) and 22.5 μM pro-drug in 1 mL 50 mM Tris-HCl buffer (pH 7.5). Cleavage of the prodrug cap can be visualized in real time via DTNB cleavage at Abs412 by the esterase-liberated dithiol molecule.

esterase = assay: Pro-drug DTNB assay after incubation with esterase; type: biochemical, porcine; conditions: for dependence of activation on amount of esterase: varying amounts of esterase
Source text: as §1

Muc5AC = biological target: T1, Muc5AC (Homo sapiens, UniProt P98088); assay: Western blot analysis of HBE mucus, Muc5AC; type: cell-based; conditions: single treatment, 10 mM
T1 construct: endogenous in cells; host or cells: primary human bronchial epithelial (HBE) cultures
Source text: (§2) This assay tests whether mucin has been reduced by mucolytic compounds. Various mucin-containing substrates (e.g. saliva, primary human bronchial epithelial (HBEs) cell mucus (either on cultures or harvested), and sputum) treated with our dithiol mucolytic compounds are quenched upon completion of the treatment period with a 10-fold excess of N-ethylmaleimide in order to alkylate any remaining active compound and to prevent further mucin reduction. A 10× concentrated sample loading buffer is diluted into each sample (lx TAE/5% glycerol/0.1% SDS/Bromophenol Blue). Samples (50 μg) were analyzed by electrophoresis on 0.9% agarose gels using a buffer system consisting of 1×TAE/0.1% SDS. The agarose gel was soaked for 15 min in 4×SSC (0.6 M NaCl, 60 mM Tri-sodium citrate dehydrate) containing 10 mM DTT before transferring the samples from the gel onto a nitrocellulose membrane by vacuum blotter. Unreduced and reduced Muc5B and Muc5AC were visualized on a LiCor Odyssey imaging detection system using a polyclonal antibody directed towards Muc5B.

Muc5B [2] = biological target: T2, Muc5B (Homo sapiens, UniProt Q9HC84); assay: Western blot analysis of HBE mucus, Muc5B; type: cell-based; conditions: single treatment, 10 mM
T2 construct: 68, 70a/b and 76 all reduce MUC5B in human mucus samples; from tissue; host or cells: human mucus samples
Source text: as §2

[3] = Stability of capped and uncapped compounds tested with DTNB; type: physicochemical; conditions: 4 days at room temperature; tested before and after incubation with esterase
Source text: This assay was designed to determine whether prodrug caps added on to our dithiol mucolytic compounds can be cleaved from the molecule. If so, the outcome would be an “active” compound that is able to reduce the S—S bond in DTNB. When cleaved the resulting compound, NTB (2-nitro-5-thiobenzoate), is a colored product that can be measured spectrophotometrically at an absorbance of 412 nm (Abs412). Using the molar extinction coefficient of NTB and measured maximum Abs412, the molar amount of DTNB that reacted with our mucolytic agents can be calculated. Dithiol mucolytic compounds react at a 2:1 stoichiometric ratio with DTNB (i.e. 2 molecules of NTB are produced for every one molecule of a dithiol compound that is oxidized). Dithiol prodrugs were mixed at a final concentration of 22.5 μM with excess DTNB (100 μM final) in 1 mL 50 mM Tris-HCl buffer (pH 7.5) and maximum Abs412 was measured. In the absence of a purified hydrolytic enzyme (e.g. porcine liver esterase; Sigma), the amount of DTNB cleavage observed is an indicator for stability of the cap on the prodrug compound (i.e. if the prodrug remains intact in solution the Abs412=0). […]

human aminopeptidase = assay: DTNB assay after incubation with human aminopeptidase; type: biochemical; conditions: over an hour incubation, two concentrations of human aminopeptidase
Muc5B [4] = biological target: T2, Muc5B; assay: MUC5B reduction in human mucus samples; type: biochemical
Source text: as §2

[5] = system: human bronchial epithelial cells (HBE); assay: HBE ADME assay; type: in vitro ADME; conditions: four hours post-dose
Procedure: This assay was designed to determine if our dithiol prodrug compounds would be retained on the apical surface of human bronchial epithelial cells (HBE) (i.e. they are predominately cell impermeant) and if the compounds could be metabolized to their active forms (i.e. are there relevant hydrolytic enzymes present). Towards this goal, 15 μL of 10 mM dithiol prodrug compound was added to the apical surface of HBEs. At indicated time points, mucus from the apical surface was isolated with a PBS wash that contained 10-fold excess of N-ethylmaleimide in order to alkylate any remaining active compound and to prevent further mucin reduction. In addition the HBE cells and basolateral media were isolated at each time point. The form (e.g., prodrug, active metabolite, oxidized metabolite) and location (apical, cellular, basolateral media) of each compound was analyzed by LC-MS.

[6] = Elimination of inhaled 14C-labeled NAC from the lungs in animal studies; type: in vivo; conditions: inhaled or intranasal, administered by inhalation, animal studies (unpublished observation)

With `CC(=O)SCc1cc(OCCNC(=O)[C@@H](N)CCCCN)c(OCCNC(=O)[C@@H](N)CCCCN)cc1CSC(C)=O` [Compound 11, S,S′-((4,5-bis(2-((S)-2,6-diaminohexanamido)ethoxy)-1,2-phenylene)bis(methylene)) diethanethioate hydrochloride] the “reducing activity in DTNB assay without enzyme” value [1] was “remained inactive” and the “activation by esterase in DTNB assay” value (esterase; low and high concentration of esterase, approximately 15 min incubation) was “activated compound 11 to a similar level as compound 41”.
In the case of `CC(=O)SCc1ccccc1CSC(C)=O` [Compound 13, S,S′-(1,2-phenylenebis(methylene)) diethanethioate], the “amount of esterase giving full activation” value (esterase; DTNB assay) is reported as at least 0.015 units, the “activation by esterase in DTNB assay” value (esterase; high concentration of esterase) is reported as “fully activated immediately” and the “activation by esterase in DTNB assay” value (esterase; low concentration of esterase, 15 min incubation) is reported as “near fully activated”. For the same molecule, the “dependence of activation on amount of esterase” value (“dependence of activation” for short) (esterase) was “Increasing amounts of esterase correlated with increasing activation”.
With `CC(=O)SCc1ccc(OCCN(C[C@H](O)[C@@H](O)[C@H](O)[C@H](O)CO)C[C@H](O)[C@@H](O)[C@H](O)[C@H](O)CO)cc1CSC(C)=O` [Compound 23, S,S′-((4-(2-(bis((2S,3R,4R,5R)-2,3,4,5,6-pentahydroxyhexyl)amino)ethoxy)-1,2-phenylene)bis(methylene)) diethanethioate] the “reduction of Muc5AC on the apical surface of HBE cultures” value (Muc5AC) was “reduced”, the “reduction of Muc5B on the apical surface of HBE cultures” value (Muc5B [2]) was “reduced” and the “dependence of activation” value (esterase) was “Increasing amounts of esterase increased activation”. The “stability against oxidation tested with DTNB” value [3] was “prevents some but not all oxidation”.
In the case of `NCCCC[C@H](N)C(=O)SCc1ccccc1CSC(=O)[C@@H](N)CCCCN` [Compound 35, (2S,2′S)—S,S′-(1,2-phenylenebis(methylene)) bis(2,6-diaminohexanethioate)HCl salt], the “activation by aminopeptidase in DTNB assay” value (human aminopeptidase) is reported as “does not completely activate the compound”.
In the case of `CC(=O)SCc1ccc(OCCN(C[C@@H](O)[C@@H](O)[C@H](O)[C@H](O)CO)C[C@@H](O)[C@@H](O)[C@H](O)[C@H](O)CO)cc1CSC(C)=O` [Compound 68, S,S′-((4-(2-(bis((2R,3R,4R,5R)-2,3,4,5,6-pentahydroxyhexyl)amino)ethoxy)-1,2-phenylene)bis(methylene)) diethanethioate hydrochloride], the “reduction of MUC5B in human mucus samples” value (Muc5B [4]) is reported as “reduce MUC5B”, the “reducing activity in DTNB assay without enzyme” value [1] is reported as “does not reduce the disulfide bonds” and the “metabolism and oxidation on the apical surface of HBE cultures” value [5] is reported as “substantially metabolized and oxidized”. The “retention on the apical cell surface of HBE cultures” value [5] was “substantially maintained on the apical cell surface” and the “dependence of activation” value (esterase) was “concentration dependent increase in reaction rates”.
In the case of `Cl.OC[C@@H](O)[C@@H](O)[C@H](O)[C@H](O)CN(CCOc1ccc(CS)c(CS)c1)C[C@@H](O)[C@@H](O)[C@H](O)[C@H](O)CO` [Compound 76, (2R,2′R,3R,3′R,4R,4′R,5R,5′R)-6,6′-((2-(3,4-bis(mercaptomethyl)phenoxy)ethyl)azanediyl)bis(hexane-1,2,3,4,5-pentaol) hydrochloride], the “reduction of MUC5B in human mucus samples” value (Muc5B [4]) is reported as “reduce MUC5B” and the “time to fully reduce all available disulfides” value ([1]; no enzyme) is reported as under 10 s.
Work on `CC(=O)N[C@@H](CS)C(=O)O` [NAC, N-acetyl cysteine] yielded a half-life [6] of about 20 min.
With “S-4-(2-(bis((2R,3R,4R,5R)-2,3,4,5,6-pentahydroxyhexyl)amino)ethoxy)-2-(mercaptomethyl)benzyl ethanethioate hydrochloride and S-5-(2-(bis((2R,3R,4R,5R)-2,3,4,5,6-pentahydroxyhexyl)amino)ethoxy)-2-(mercaptomethyl)benzyl ethanethioate hydrochloride [70a/b]” the “reduction of MUC5B in human mucus samples” value (Muc5B [4]) was “reduce MUC5B”.
